In patent US20260130858A1, “LYOPHILIZED SOVATELTIDE-BASED INJECTABLE FORMULATION AND A PROCESS FOR PREPARATION” (PHARMAZZ, INC., priority 2023, published 2026):

Tests used:
[1] = system: acute cerebral ischemic stroke patients; test: Phase III study in acute cerebral ischemic stroke patients, modified Rankin Scale at day 90; assay type: in vivo, human; conditions: for Odds ratio, change in mRS of 2 or more / Odds ratio, mRS of 0-2 day 90 / Relative Risk, change in mRS of 2 or more / Relative Risk, mRS of 0-2 day 90: control vs sovateltide; for Modified Rankin Scale Day 90, mean: day 90 post-randomization; for Difference between means (B − A) ± SEM, Modified Rankin Scale Day 90: sovateltide minus control
Protocol: A prospective, multicentric, randomized phase III study was conducted in acute cerebral ischemic stroke patients aged 18 years through 78 years. Patients with radiologic confirmation of ischemic stroke could be enrolled if presenting up to 24 hours after the onset of symptoms and with a modified Rankin Score (mRS) of 3 to 4 and an NIHSS (National Institute of Health Stroke Scale) score of greater than 5. Patients with intracranial haemorrhage and those receiving endovascular therapy were excluded.
Patients were randomized in a 1:1 ratio, 80 patients to the sovateltide group and 78 patients to the control (saline) group. Every patient received the standard of care (SOC) and was followed for 90 days. The study drug (normal saline or sovateltide (0.3 μg/kg) was administered in three doses administered as an intravenous bolus over 1 minute at an interval of 3 hours±1 hour on day 1, day 3, and day 6 (total sovateltide dose of 0.9 μg/kg/day).
The primary objectives were to determine the neurological outcome based on modified Rankin Scale (mRS) score, National Institute of Health Stroke Scale (NIHSS) score, and Barthel Index (BI) scale score from day 1 through day 90. In addition, quality-of-Life was measured by EuroQol-EQ-5D (EQ-5D) and stroke-specific quality-of-life (SSQoL) scores at 60 days and 90 days of treatment.
A total of 158 patients with acute cerebral ischemic stroke were enrolled in this test, of which 137 completed 90-day follow-up. Patients received saline (n=70; 45 male and 25 female) or sovateltide (n=67; 45 male and 22 female) within 24 hours of the onset of stroke. Patients received the investigational drug […] at 16.85±0.74 and 17.40±0.67 hours (mean±SEM, p=0.583) of stroke onset in control and sovateltide cohorts, respectively. The baseline characteristics and SOC in both cohorts were similar.

[2] = Solution stability, related substances HPLC method validation (Method 1); conditions: standard solution at 5° C.; related substances Method 1
Source text: Chromatographic Parameters for method validation of Related Substance of Sovateltide Injection (Method 1): Method-1 utilizes chromatographic conditions to separate and quantify a specific compound of interest. The analytical column used is either the Xtimate C18 Column or the ChromCore 120 C18 Column, both with dimensions of 4.6×250 mm and 5 m. A Ghost Buster Column with dimensions of 4.6×50 mm is used to detect any unexpected peaks, which are usually called ghost peaks that may interfere with the results. The flow rate is set to 0.5 mL/min, with an injection volume of 90 μL. The detection wavelength is 215 nm, and the auto sampler temperature is maintained at 5° C. The column oven temperature is set to 50° C., and the run time for the method is 120 min. […] These parameters ensure the separation and accurate quantification of the compound in the sample.
• Mobile Phase A (KH2PO4+ Sodium Chloride in HPLC water). • Mobile Phase-B (Methanol).

[3] = with cerebrolysin, listed as sovateltide
[4] = with citicoline, listed as sovateltide
[5] = with mannitol, sovateltide group n=30
[6] = with mannitol, sovateltide group n=30, listed as sovateltide
[7] = with thrombolytics, listed as sovateltide

succinyl-(glutamyl(9)-alanyl(11,15))-endothelin-1 (8-21) [Sovateltide]
Number of patients with change in mRS < 2 from day 1 to day 90 ([1]; with cerebrolysin): 1 | Number of patients with mRS 0-2 day 90 ([1]; with cerebrolysin): 11 | Number of patients with mRS > 2 day 90 ([1]; with cerebrolysin): 1 | Number of patients, change in mRS of 2 or more from day 1 to day 90 (column head mRS > 2) ([1]; with cerebrolysin): 11 | Percentage of row total, change in mRS < 2 ([1]; with cerebrolysin): 8.33% | Percentage of row total, change in mRS ≥ 2 ([1]; with cerebrolysin): 91.67% | Percentage of row total, mRS 0-2 day 90 ([1]; with cerebrolysin): 91.67% | Percentage of row total, mRS > 2 day 90 ([1]; with cerebrolysin): 8.33% | Odds ratio, change in mRS of 2 or more ([1]; with cerebrolysin): 0.5455 | Odds ratio, mRS of 0-2 day 90 ([1]; with cerebrolysin): 0.8462 | Relative Risk, change in mRS of 2 or more ([1]; with cerebrolysin): 0.9351 | Relative Risk, mRS of 0-2 day 90 ([1]; with cerebrolysin): 0.8571 | Modified Rankin Scale Day 90, mean ([1]; with cerebrolysin, sovateltide group n=12): 0.7500 | Number of patients with mRS 0-2 day 90 [1, 3]: similar | Number of patients, change in mRS of 2 or more from day 1 to day 90 (column head mRS > 2) [1, 3]: similar | Difference between means (B − A) ± SEM, Modified Rankin Scale Day 90 ([1]; with cerebrolysin): −0.3214 ± 0.3517 | Number of patients with change in mRS < 2 from day 1 to day 90 ([1]; with citicoline): 5 | Number of patients with change in mRS ≥ 2 from day 1 to day 90 ([1]; with citicoline): 18 | Number of patients with mRS 0-2 day 90 ([1]; with citicoline): 21 | Number of patients with mRS > 2 day 90 ([1]; with citicoline): 3 | Percentage of row total, change in mRS < 2 ([1]; with citicoline): 21.74% | Percentage of row total, change in mRS ≥ 2 ([1]; with citicoline): 78.26% | Percentage of row total, mRS 0-2 day 90 ([1]; with citicoline): 87.50% | Percentage of row total, mRS > 2 day 90 ([1]; with citicoline): 12.50% | Odds ratio, change in mRS of 2 or more ([1]; with citicoline): 0.3283 | Odds ratio, mRS of 0-2 day 90 ([1]; with citicoline): 4.500 | Relative Risk, change in mRS of 2 or more ([1]; with citicoline): 0.6921 | Relative Risk, mRS of 0-2 day 90 ([1]; with citicoline): 3.130 | Modified Rankin Scale Day 90, mean ([1]; with citicoline, sovateltide group n=24): 1.208 | Modified Rankin Scale Day 90, mean ([1]; with citicoline, sovateltide group n=24, listed as sovateltide): significantly lower | Number of patients with change in mRS ≥ 2 from day 1 to day 90 [1, 4]: significantly more | Number of patients with mRS 0-2 day 90 [1, 4]: significantly more | Difference between means (B − A) ± SEM, Modified Rankin Scale Day 90 ([1]; with citicoline): −0.7917 ± 0.3638 | Percentage of row total, change in mRS < 2 ([1]; with mannitol): 36.67% | Percentage of row total, change in mRS ≥ 2 ([1]; with mannitol): 63.33% | Percentage of row total, mRS 0-2 day 90 ([1]; with mannitol): 63.33% | Percentage of row total, mRS > 2 day 90 ([1]; with mannitol): 36.67% | Odds ratio, change in mRS of 2 or more ([1]; with mannitol): 0.3184 | Odds ratio, mRS of 0-2 day 90 ([1]; with mannitol): 2.735 | Relative Risk, change in mRS of 2 or more ([1]; with mannitol): 0.5603 | Relative Risk, mRS of 0-2 day 90 ([1]; with mannitol): 1.672 | Modified Rankin Scale Day 90, mean [1, 5]: 2.033 | Modified Rankin Scale Day 90, mean [1, 6]: significantly lower | Number of patients with change in mRS < 2 from day 1 to day 90 [1, 5]: 11 | Number of patients with change in mRS ≥ 2 from day 1 to day 90 [1, 5]: 19 | Number of patients with mRS 0-2 day 90 [1, 5]: 19 | Number of patients with mRS > 2 day 90 [1, 5]: 11 | Number of patients with change in mRS ≥ 2 from day 1 to day 90 [1, 6]: significantly more | Number of patients with mRS 0-2 day 90 [1, 6]: significantly more | Difference between means (B − A) ± SEM, Modified Rankin Scale Day 90 ([1]; with mannitol): −0.7086 ± 0.3316 | Number of patients with change in mRS < 2 from day 1 to day 90 ([1]; with thrombolytics): 3 | Number of patients with change in mRS ≥ 2 from day 1 to day 90 ([1]; with thrombolytics): 6 | Number of patients with mRS 0-2 day 90 ([1]; with thrombolytics): 6 | Number of patients with mRS > 2 day 90 ([1]; with thrombolytics): 3 | Percentage of row total, change in mRS < 2 ([1]; with thrombolytics): 33.33% | Percentage of row total, change in mRS ≥ 2 ([1]; with thrombolytics): 66.67% | Percentage of row total, mRS 0-2 day 90 ([1]; with thrombolytics): 66.67% | Percentage of row total, mRS > 2 day 90 ([1]; with thrombolytics): 33.33% | Odds ratio, change in mRS of 2 or more ([1]; with thrombolytics): 0.7500 | Odds ratio, mRS of 0-2 day 90 ([1]; with thrombolytics): 1.333 | Relative Risk, change in mRS of 2 or more ([1]; with thrombolytics): 0.9000 | Relative Risk, mRS of 0-2 day 90 ([1]; with thrombolytics): 1.200 | Modified Rankin Scale Day 90, mean ([1]; with thrombolytics, sovateltide group n=9): 1.667 | Number of patients with change in mRS ≥ 2 from day 1 to day 90 [1, 7]: similar | Number of patients with mRS 0-2 day 90 [1, 7]: similar | Difference between means (B − A) ± SEM, Modified Rankin Scale Day 90 ([1]; with thrombolytics): −0.2833 ± 0.6321 | Time standard solution is stable [2]: up to 60 Hours
